Assay results reported in ChEMBL document CHEMBL3272337, “Synthesis of a fragment of human parathyroid hormore, hPTH-(44-68)” (J Med Chem, 1977).
The source made the active and inactive calls. The rule behind the calls is not given here. Peptide text beside a SMILES is read from it.

Legend:
[1] = target: T1, Adenylate cyclase (Homo sapiens) (UniProt Q8NFM4+O60503+Q08828+P40145+O60266+O95622+O43306+Q08462+P51828); assay: Agonist activity at adenylyl cyclase (unknown origin) at 1.35 x 10^-4 M; assay type: protein assay
Gallus gallus = assay: Induction of PTH-like activity in iv dosed chick by hypercalcemic assay; assay type: functional, organism-based
[2] = target: T1, Adenylate cyclase (Homo sapiens); assay: Inhibition of bPTH-stimulated adenylyl cyclase (unknown origin) activity at 500:1 compound to native hormone molar ratio; assay type: protein assay

Activity [1]: inactive
inhibition [2]: inactive
Structure (SMILES): CC(C)C[C@H](NC(=O)[C@H](CO)NC(=O)[C@H](CCCCN)NC(=O)[C@H](CCC(=O)O)NC(=O)[C@H](Cc1cnc[nH]1)NC(=O)[C@H](CO)NC(=O)[C@H](CCC(=O)O)NC(=O)[C@@H](NC(=O)[C@H](CC(C)C)NC(=O)[C@@H](NC(=O)[C@H](CC(N)=O)NC(=O)[C@H](CC(=O)O)NC(=O)[C@H](CCC(=O)O)NC(=O)[C@H](CCCCN)NC(=O)[C@H](CCCCN)NC(=O)[C@H](CCCNC(=N)N)NC(=O)[C@@H]1CCCN1C(=O)[C@H](CCCNC(=N)N)NC(=O)[C@H](CCC(N)=O)NC(=O)[C@H](CO)NC(=O)CNC(=O)[C@H](C)NC(=O)[C@H](CC(=O)O)NC(=O)[C@@H](N)CCCNC(=N)N)C(C)C)C(C)C)C(=O)NCC(=O)O (H-RDAGSQRPRKKEDNVLVESHEKSLG-OH)
Activity (Gallus gallus): inactive
